Laboratory results as given in PMC10994617, “In silico study, synthesis, and antineoplastic evaluation of thiazole-based sulfonamide derivatives and their silver complexes with expected carbonic anhydrase inhibitory activity” (Journal of Medicine and Life, 2023).
Where two headings read alike, the source gives them in different places.

Assays:
[1] = system: MCF10A; test: MTT cytotoxicity assay, MCF10A normal breast epithelial cell line; type: cell-based; settings: MCF10A normal cells, read-out: MCF10A IC50 (µM) ± SD
Description: (§1) To evaluate the antitumor activity of the newly synthesized sulfonamide carbonic anhydrase inhibitors (compounds M3, M4, and M5), we employed cell line assays using 3-(4,5-dimethylthiazol-2-yl)-2,5-diphenyltetrazolium (MTT). Two cell types were utilized in this study: MCF-7, a breast cancer cell line, to assess the effects of the compounds on cancer cells, and MCF10A, a normal breast epithelial cell line, to evaluate the effects on non-cancerous cells. These cell lines were procured from the Iranian National Cell Bank at the Pasteur Institute. MCF-7 cells were cultured in RPMI-1640 medium, while MCF10A cells were cultured in DMEM: F12 medium. Both media were supplemented with 10% fetal bovine serum (FBS), followed by the addition of antibiotics (100 µg/ml streptomycin and 100 units/ml penicillin). The cells were maintained in a humidified atmosphere at 37°C with 5% carbon dioxide. For cell passaging, a trypsin/EDTA solution (Gibco) and phosphate-buffered saline (PBS) were utilized. Cell viability was assessed using MTT from Sigma-Aldrich. Each type of cell (MCF-7 and MCF10A) was cultured separately in 96-well plates (1.4 × 10^4 cells per well with 200 µl of fresh medium) after a full day had passed (temperature of 37°C in a 5% CO2 environment). The supernatant was removed, and MTT solution at a concentration of 200 µl was added to each well and then incubated for four hours at a temperature of 37°C. After the end of the incubation period and to dissolve the formazan crystals, 100 µl of dimethyl sulfoxide (DMSO) was added, and the plate was left in a shaker at a temperature of 37°C until it was confirmed that all the crystals had completely dissolved. An ELISA reader (Model Wave xs2, BioTek) was used to measure cell vitality by absorption at 570 nm and calculate the IC50 values.

[2] = system: MCF-7; test: MTT cytotoxicity assay, MCF-7 breast cancer cell line; type: cell-based, human; settings: MCF-7, MTT
Description: as §1

[3] = Homo sapiens, MCF7, read-out: MCF-7 IC50 (µM) ± SD

NS(=O)(=O)c1ccc(Nc2csc(N=Cc3ccc(O)cc3)n2)cc1 (stereo in doubt) [Compound M3, (Z)-4-((2-((4-hydroxybenzylidene)amino)thiazol-4-yl)amino) benzene sulfonamide]
IC50 ([1]; Homo sapiens, MCF-10A): 135 ± 4.19 µM | IC50 [2, 3]: 87.7 ± 2.16 µM

N.N.[Cl][Pt][Cl] [Cisplatin, reference compound]
IC50 [1]: 13.6 ± 3.45 µM | IC50 ([2]; read-out: MCF-7 IC50 (µM) ± SD): 15.1 ± 2.25 µM

CN(C)c1ccc(/C=N/c2nc(Nc3ccc(S(N)(=O)=O)cc3)cs2)cc1 [Compound M4]
IC50 ([1]; Homo sapiens, MCF-10A): 52.5 ± 3.31 µM | IC50 ([2]; Homo sapiens, MCF7, read-out: IC50 against MCF-7 cells): 77.4 µg/mL | IC50 [2, 3]: 77.4 ± 3.31 µM
